These are literature values, as cited in patent US20110217337A1, “BIOACTIVE AGENT FOR BONE TISSUE ENGINEERING” (UNIVERSITY OF CONNECTICUT, priority 2010, published 2011).

One series has as its system osteoblast. To be noted: cited from earlier work.
The next series concerns bone formation. Conditions: via the PKA pathway; cited from earlier work.
Another series deals with cAMP receptors. Conditions: in vivo; cited from earlier work.
The next series has as its system cell proliferation. Conditions: cited from earlier work.
The test system of another series is osteogenesis. To be noted: via the PKA pathway; cited from earlier work.

SMILES strings stand for the structures.

Consider `Nc1ncnc2c1nc(Br)n2[C@@H]1O[C@@H]2COP(=O)(O)O[C@H]2[C@H]1O` [8-Br-cAMP], for which the osteoblast proliferation entry in the series on osteoblast is “inhibits osteoblast proliferation”.

Turning to `CCCC(=O)Nc1ncnc2c1ncn2[C@@H]1O[C@@H]2COP(=O)(O)O[C@H]2[C@H]1OC(=O)CCC` [db-cAMP, N^6,2′-O-dibutyryladenosine-3′,5′-cyclic monophosphate], in the series with bone formation, the “in vivo bone formation” value was “enhances”. Further, the “activation of cAMP receptors” value in the series with cAMP receptors is “activate all cAMP receptors non-specifically”. Besides, the cell proliferation entry in the series on cell proliferation is “inhibit cell proliferation”. Also, the in vitro osteogenesis entry with osteogenesis is on record as “enhances”.
